Laboratory results reported in publication PMC10046961, “High-Throughput Screening Assay for Detecting Drug-Induced Changes in Synchronized Neuronal Oscillations and Potential Seizure Risk Based on Ca^2+ Fluorescence Measurements in Human Induced Pluripotent Stem Cell (hiPSC)-Derived Neuronal 2D and 3D Cultures” (Cells, 2023).
Where two headings read alike, the source gives them in different places. Marks after values point to notes of the source that are not given here.

Columns and labels:
[1] = test system: hiPSC-derived neurons co-cultured with human primary astrocytes in 2D; experiment: Ca2+ transient oscillation assay (FDSS), 2D co-culture; type: cell-based; settings: for Area under the curve - 2D Mean / Peak Number—2D Mean / Peak amplitude - 2D Mean / Peak width - 2D Mean / Peak-to-peak interval - 2D Mean / activation at 0.04 µM / activation at 0.11 µM / activation at 0.33 µM / activation at 1 µM: 60 min; for effect on peak number / Ca2+ neuronal oscillations, in words: 2D format; for activation at 0.04 µM / activation at 0.11 µM / activation at 0.33 µM / activation at 1 µM: Homo sapiens, 1 h
Method in brief: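 hiPSC-derived excitatory neurons (CW50065, Quick-Neuron EX-SeV) co-cultured with human primary astrocytes at 4:1 (10,000:2500 cells per well). Cal-520-loaded cells in HBSS with 2 mM CaCl2 and 10 mM HEPES were pretreated with 0.04% DMSO.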

[2] = test system: hiPSC-derived neurons co-cultured with human primary astrocytes in 3D; experiment: Ca2+ transient oscillation assay (FDSS), 3D spheroids; type: cell-based; settings: for Area under the curve - 3D Mean / Peak Number—3D Mean / Peak amplitude - 3D Mean / Peak width - 3D Mean / Peak-to-peak interval - 3D Mean: 60 min
Method in brief: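 Fura-2 fluorescence was read twice for 20 min each: a baseline 10 min after 0.04% DMSO, and again 60 min after compound addition at nominal final concentration. The 3D co-cultures (1:1 hiPSC neurons from a donor and human astrocytes, 8000 each) matured 5 weeks in BrainPhys medium after a 1-week differentiation.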

[3] = ref PharmaPendium, cited from earlier work
[4] = concentration printed with the symbol
[5] = Table 1, peak plasma concentration in men, free therapeutic Cmax
[6] = Table 2, highest plasma concentration in humans after the therapeutic dose
[7] = read-out: Area under the curve - 2D Mean
[8] = read-out: Peak amplitude - 2D Mean
[9] = read-out: Peak-to-peak interval - 2D Mean

For `N[C@@H](CCC(=O)O)C(=O)O` [Glutamate], the “Area under the curve - 2D Mean” value ([1]; 1.11 µM) was 5.8 % change from baseline, the “Peak Number—2D Mean” value ([1]; 1.11 µM) was −9.3 % change from baseline and the “Peak amplitude - 2D Mean” value ([1]; 1.11 µM) was −8.5 % change from baseline. The “Peak width - 2D Mean” value ([1]; 1.11 µM) was −3.4 % change from baseline, the “Peak-to-peak interval - 2D Mean” value ([1]; 1.11 µM) was −2.2 % change from baseline and the “Area under the curve - 2D Mean” value ([1]; 3.33 µM) was −13.0 % change from baseline. The “Peak Number—2D Mean” value ([1]; 3.33 µM) was −8.9 * % change from baseline, the “Peak amplitude - 2D Mean” value ([1]; 3.33 µM) was −26.9 % change from baseline and the “Peak width - 2D Mean” value ([1]; 3.33 µM) was −5.2 % change from baseline. The “Peak-to-peak interval - 2D Mean” value ([1]; 3.33 µM) was −17.4 % change from baseline, the “Area under the curve - 2D Mean” value ([1]; 10 µM) was −72.1 % change from baseline and the “Peak Number—2D Mean” value ([1]; 10 µM) was −60.3 * % change from baseline. The “Peak amplitude - 2D Mean” value ([1]; 10 µM) was −60.9 % change from baseline, the “Peak width - 2D Mean” value ([1]; 10 µM) was −67.3 % change from baseline and the “Peak-to-peak interval - 2D Mean” value ([1]; 10 µM) was 96.3 % change from baseline. The “Area under the curve - 2D Mean” value ([1]; 30 µM) was −100.0 % change from baseline, the “Peak Number—2D Mean” value ([1]; 30 µM) was −100.0 * % change from baseline and the “Peak amplitude - 2D Mean” value ([1]; 30 µM) was −100.0 % change from baseline. For the same compound, the “Peak width - 2D Mean” value ([1]; 30 µM) was −100.0 % change from baseline, the “Peak-to-peak interval - 2D Mean” value ([1]; 30 µM) was −100.0 % change from baseline and the “effect on peak number / Ca2+ neuronal oscillations, in words” value [1] was “significantly reduced peak number”. The “Ca²⁺ Transient Peak Number (2D), concentration in parentheses” value [1, 4] was 1 µM, the “Area under the curve - 3D Mean” value ([2]; 1.11 µM) was 116.3 % change from baseline and the “Peak Number—3D Mean” value ([2]; 1.11 µM) was −7.0 % change from baseline. For the same compound, the “Peak amplitude - 3D Mean” value ([2]; 1.11 µM) was 85.4 % change from baseline, the “Peak width - 3D Mean” value ([2]; 1.11 µM) was 12.5 % change from baseline and the “Peak-to-peak interval - 3D Mean” value ([2]; 1.11 µM) was 11.6 % change from baseline. For the same compound, the “Area under the curve - 3D Mean” value ([2]; 3.33 µM) was 129.9 % change from baseline, the “Peak Number—3D Mean” value ([2]; 3.33 µM) was 12.3 % change from baseline and the “Peak amplitude - 3D Mean” value ([2]; 3.33 µM) was 108.3 % change from baseline. The “Peak width - 3D Mean” value ([2]; 3.33 µM) was 8.6 % change from baseline, the “Peak-to-peak interval - 3D Mean” value ([2]; 3.33 µM) was 3.1 % change from baseline and the “Area under the curve - 3D Mean” value ([2]; 10 µM) was 128.0 % change from baseline. The “Peak Number—3D Mean” value ([2]; 10 µM) was 20.0 % change from baseline, the “Peak amplitude - 3D Mean” value ([2]; 10 µM) was 103.9 % change from baseline and the “Peak width - 3D Mean” value ([2]; 10 µM) was 8.1 % change from baseline. The “Peak-to-peak interval - 3D Mean” value ([2]; 10 µM) was 0.4 % change from baseline, the “Area under the curve - 3D Mean” value ([2]; 30 µM) was 116.3 % change from baseline and the “Peak Number—3D Mean” value ([2]; 30 µM) was 8.4 % change from baseline. The “Peak amplitude - 3D Mean” value ([2]; 30 µM) was 107.0 % change from baseline, the “Peak width - 3D Mean” value ([2]; 30 µM) was 2.8 % change from baseline and the “Peak-to-peak interval - 3D Mean” value ([2]; 30 µM) was −1.6 % change from baseline. For the same compound, the “effect on peak number of oscillations, in words” value ([2]; 3D-cultured) was “did not significantly change the peak number”, the “Ca²⁺ Transient Peak Number (3D), concentration in parentheses” value [2, 4] was 30 µM and the “Free Cmax” value [3, 5] was 1000 to 2000 nM. For the same compound, the “Free Cmax” value [3, 6] was 1000 to 2000 nM.
For `CN1CCN(C2=Nc3cc(Cl)ccc3Nc3ccccc32)CC1` [Clozapine], the “effect on peak number / Ca2+ neuronal oscillations, in words” value [1] was “significantly increased peak number”, the activation at 0.04 µM [1, 7] was 28.5% and the activation at 0.04 µM ([1]; read-out: Peak Number—2D Mean) was 15.3%. The activation at 0.04 µM [1, 8] was 12.5%, the activation at 0.04 µM ([1]; read-out: Peak width - 2D Mean) was 20.8% and the activation at 0.04 µM [1, 9] was 1.2%. For the same compound, the activation at 0.11 µM [1, 7] was 49%, the activation at 0.11 µM ([1]; read-out: Peak Number—2D Mean) was 24.2% and the activation at 0.11 µM [1, 8] was 16.7%. For the same compound, the activation at 0.11 µM ([1]; read-out: Peak width - 2D Mean) was 35.5%, the activation at 0.11 µM [1, 9] was -15.5% and the activation at 0.33 µM [1, 7] was 28.8%. For the same compound, the activation at 0.33 µM ([1]; read-out: Peak Number—2D Mean) was -15%, the activation at 0.33 µM [1, 8] was 9.4% and the activation at 0.33 µM ([1]; read-out: Peak width - 2D Mean) was 22.8%. The activation at 0.33 µM [1, 9] was 82%, the activation at 1 µM [1, 7] was 10.8% and the activation at 1 µM ([1]; read-out: Peak Number—2D Mean) was -8.3%. For the same compound, the activation at 1 µM [1, 8] was 1%, the activation at 1 µM ([1]; read-out: Peak width - 2D Mean) was 11% and the activation at 1 µM [1, 9] was 2.7%. The “Area under the curve - 3D Mean” value ([2]; 0.04 µM) was 150.1 % change from baseline, the “Peak Number—3D Mean” value ([2]; 0.04 µM) was 11.1 % change from baseline and the “Peak amplitude - 3D Mean” value ([2]; 0.04 µM) was 133.6 % change from baseline. The “Peak width - 3D Mean” value ([2]; 0.04 µM) was 6.2 % change from baseline, the “Peak-to-peak interval - 3D Mean” value ([2]; 0.04 µM) was 4.5 % change from baseline and the “Area under the curve - 3D Mean” value ([2]; 0.11 µM) was 153.9 % change from baseline. The “Peak Number—3D Mean” value ([2]; 0.11 µM) was −10.0 % change from baseline, the “Peak amplitude - 3D Mean” value ([2]; 0.11 µM) was 130.9 % change from baseline and the “Peak width - 3D Mean” value ([2]; 0.11 µM) was 8.6 % change from baseline. The “Peak-to-peak interval - 3D Mean” value ([2]; 0.11 µM) was 19.2 % change from baseline, the “Area under the curve - 3D Mean” value ([2]; 0.33 µM) was 163.3 % change from baseline and the “Peak Number—3D Mean” value ([2]; 0.33 µM) was −2.8 % change from baseline. The “Peak amplitude - 3D Mean” value ([2]; 0.33 µM) was 129.8 % change from baseline, the “Peak width - 3D Mean” value ([2]; 0.33 µM) was 14.0 % change from baseline and the “Peak-to-peak interval - 3D Mean” value ([2]; 0.33 µM) was 5.6 % change from baseline. For the same compound, the “Area under the curve - 3D Mean” value ([2]; 1 µM) was 182.8 % change from baseline, the “Peak Number—3D Mean” value ([2]; 1 µM) was −13.9 % change from baseline and the “Peak amplitude - 3D Mean” value ([2]; 1 µM) was 129.4 % change from baseline. For the same compound, the “Peak width - 3D Mean” value ([2]; 1 µM) was 22.6 % change from baseline, the “Peak-to-peak interval - 3D Mean” value ([2]; 1 µM) was 14.2 % change from baseline and the “Free Cmax” value [3, 5] was 300 nM. The “Free Cmax” value [3, 6] was 300 nM.
